Data from patent US20230115176A1 (Ra Pharmaceuticals, Inc., priority 2019, published 2023).
Converted amounts (≈) assume the structure as drawn.

biological target: T1, Human C5 (Homo sapiens, UniProt P01031); assay: Red blood cell (RBC) hemolysis assay, luminescent (Example 13, Table 22); type: cell-based; conditions: sheep EA cells, […] C5-depleted human serum, 0.5 nM human C5, 1 hour 37° C., luminescence; further: 1.5% C5-depleted human serum
T1 construct: purchased Complement Technology
Source text: Compound CU0136 is a racemic mixture of Compound CU0186 and CU0187. Numbers in parenthesis following compound numbers indicate alternate enantiomers (as distinguished by retention time during chromatographical separation).

T1 sequence (P01031 19-1676): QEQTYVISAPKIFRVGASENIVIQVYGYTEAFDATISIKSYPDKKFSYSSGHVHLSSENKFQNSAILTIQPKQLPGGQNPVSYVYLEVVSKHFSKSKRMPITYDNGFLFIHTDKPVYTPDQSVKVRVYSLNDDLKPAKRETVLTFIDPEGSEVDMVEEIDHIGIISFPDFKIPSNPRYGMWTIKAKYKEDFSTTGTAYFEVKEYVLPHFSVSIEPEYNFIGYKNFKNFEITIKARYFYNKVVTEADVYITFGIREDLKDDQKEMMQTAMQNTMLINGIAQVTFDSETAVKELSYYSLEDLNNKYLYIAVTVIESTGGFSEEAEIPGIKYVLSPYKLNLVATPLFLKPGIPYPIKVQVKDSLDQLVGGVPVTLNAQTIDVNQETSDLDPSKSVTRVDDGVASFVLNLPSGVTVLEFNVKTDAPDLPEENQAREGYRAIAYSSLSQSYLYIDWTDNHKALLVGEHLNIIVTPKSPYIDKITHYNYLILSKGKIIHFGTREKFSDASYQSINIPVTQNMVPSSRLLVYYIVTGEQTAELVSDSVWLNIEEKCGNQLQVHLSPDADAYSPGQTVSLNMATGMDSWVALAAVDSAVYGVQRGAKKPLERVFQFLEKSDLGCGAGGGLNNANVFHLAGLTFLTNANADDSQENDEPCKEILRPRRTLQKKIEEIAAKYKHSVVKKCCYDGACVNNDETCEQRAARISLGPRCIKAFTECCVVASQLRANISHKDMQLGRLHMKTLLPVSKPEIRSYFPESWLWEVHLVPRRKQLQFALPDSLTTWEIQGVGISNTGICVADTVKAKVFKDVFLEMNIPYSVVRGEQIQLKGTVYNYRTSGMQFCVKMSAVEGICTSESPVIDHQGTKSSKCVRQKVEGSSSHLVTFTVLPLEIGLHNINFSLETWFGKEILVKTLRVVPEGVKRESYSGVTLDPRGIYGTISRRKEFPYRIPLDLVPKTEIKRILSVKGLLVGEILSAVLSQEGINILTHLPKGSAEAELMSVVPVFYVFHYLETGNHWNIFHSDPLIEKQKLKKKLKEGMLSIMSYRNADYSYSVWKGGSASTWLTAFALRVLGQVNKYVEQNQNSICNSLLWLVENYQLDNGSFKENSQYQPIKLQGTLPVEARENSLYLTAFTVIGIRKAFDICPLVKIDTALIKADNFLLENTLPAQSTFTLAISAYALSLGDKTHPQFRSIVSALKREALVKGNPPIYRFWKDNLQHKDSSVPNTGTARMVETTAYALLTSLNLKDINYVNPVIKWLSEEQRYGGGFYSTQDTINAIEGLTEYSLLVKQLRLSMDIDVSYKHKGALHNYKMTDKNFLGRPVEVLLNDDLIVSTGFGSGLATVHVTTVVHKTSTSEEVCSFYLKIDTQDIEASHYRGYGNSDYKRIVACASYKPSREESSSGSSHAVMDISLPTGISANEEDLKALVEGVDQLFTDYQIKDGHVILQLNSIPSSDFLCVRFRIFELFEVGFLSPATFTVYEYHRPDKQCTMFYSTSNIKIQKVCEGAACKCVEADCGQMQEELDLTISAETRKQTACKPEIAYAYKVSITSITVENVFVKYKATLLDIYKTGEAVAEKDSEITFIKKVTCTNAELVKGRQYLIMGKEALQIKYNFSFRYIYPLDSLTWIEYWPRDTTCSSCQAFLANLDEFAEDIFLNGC

SMILES | IC50 [nM]
COc1cc(CC(=O)N(C)C)ccc1CN1CCCN(c2ccc(OC)c(OCCC[C@H]3C[C@H]3C)c2)C1=O (racemic) [CU0226] | 15.7
CCCCCOc1cc(N2CCCN(Cc3ccc(CC(=O)N4CCO[C@@H](CN(C)C)C4)cc3OC)C2=O)ccc1OC (stereo in doubt) [CU0186] | 18.8
CCCCCOc1cc(N2CCCN(Cc3ccc(CC(=O)N4CCO[C@H](CN(C)C)C4)cc3OC)C2=O)ccc1OC (stereo in doubt) [CU0187] | 14.8
COc1cc(CC(=O)NC2CCN(C(C)C)CC2)ccc1CN1CCCN(c2ccc(OC)c(OCCCC(C)(F)F)c2)C1=O [CU0141] | 13.1
COc1ccc(F)cc1CN1CCCN(c2ccc(OC)c(OCCC3CCC3)c2)C1=O [CU0154] | 22.6
CCCCCOc1cc(N2CCCN(Cc3ccc(Cc4ncco4)cc3OC)C2=O)ccc1OC [CU0208] | 59.1
CCCCCOc1cc(N2CCCN(Cc3ccc(Cc4nnn[nH]4)cc3OC)C2=O)ccc1OC [CU0209] | 55.2
CCCCCOc1cc(N2CCCN(Cc3ccc(CC#N)cc3OC)C2=O)ccc1OC [CU0210] | 32.9
COc1ccc(F)cc1CN1CCCN(c2ccc(OC)c(OCCc3ccccc3C)c2)C1=O [CU0215] | 34.1
COc1ccc(F)cc1CN1CCCN(c2ccc(OC)c(OCCC3CCCCC3)c2)C1=O [CU0216] | 27
COc1ccc(F)cc1CN1CCCN(c2ccc(OC)c(OCCCC(C)C)c2)C1=O [CU0217] | 18.3
COc1ccc(F)cc1CN1CCCN(c2ccc(OC)c(OCCc3ccc(C)cc3)c2)C1=O [CU0219] | 221
COc1ccc(F)cc1CN1CCCN(c2ccc(OC)c(OCCc3cccc(C(F)(F)F)c3)c2)C1=O [CU0220] | 254
COc1ccc(F)cc1CN1CCCN(c2ccc(OC)c(OCc3cccc(OC(F)(F)F)c3)c2)C1=O [CU0221] | 741
COc1ccc(F)cc1CN1CCCN(c2ccc(OC)c(OCCCC3CCCCC3)c2)C1=O [CU0222] | 69.9
COc1ccc(F)cc1CN1CCCN(c2ccc(OC)c(OCc3cccc(C(F)(F)F)c3)c2)C1=O [CU0223] | 400
C/C=C\CCCOc1cc(N2CCCN(Cc3cc(F)ccc3OC)C2=O)ccc1OC [CU0225] | 29.1
COc1cccc(COc2cc(N3CCCN(Cc4cc(F)ccc4OC)C3=O)ccc2OC)c1 [CU0227] | 362
CCCCCOc1cc(N2CCCN(Cc3ccnc4c3ccn4CC(=O)N3CCCOCC3)C2=O)ccc1OC [CU0228] | 21.8

SMILES | IC50 [nM]
CCCCCOc1cc(N2CCCN(Cc3ccc(C)c4c3ccn4CC(=O)N(C)C)C2=O)ccc1OC [CU0229] | 88.9
CCCCCOc1cc(N2CCCN(Cc3ccc(F)c4c3ccn4CC(=O)N(C)C)C2=O)ccc1OC [CU0230] | 60.5
CCCCCOc1cc(N2CCCN([C@@H](C)c3cccc4c3ccn4CC(=O)N(C)C)C2=O)ccc1OC [CU0233] | 4260
CCCCCOc1cc(N2CCCN(Cc3cc(C)cc4c3ccn4CC(=O)N(C)C)C2=O)ccc1OC [CU0236] | 203
CCCCCOc1cc(N2CCCN(Cc3cc(F)cc4c3ccn4CC(=O)N(C)C)C2=O)ccc1OC [CU0237] | 43.9
CCCCCOc1cc(N2CCCN(Cc3cccc4c3cc(C)n4CC(=O)N(C)C)C2=O)ccc1OC [CU0238] | 61
COc1ccc(N2CCCN(Cc3cccc4[nH]ccc34)C2=O)cc1OCCCC(C)(F)F [CU0240] | 42.2
CCCCCOc1cc(N2CCCN(Cc3cccc4c3ccn4C3CCN(C4CC4)C3=O)C2=O)ccc1OC (stereo not shown) [CU0241] | 10.7
CCCCCOc1cc(N2CCCN(Cc3cccc4c3ccn4CC(=O)N(C)C3CCN(CC)C3)C2=O)ccc1OC (stereo not shown) [CU0242] | 8.2
CCCCCOc1cc(N2CCCN(Cc3ccnc4c3ccn4CC3CCCO3)C2=O)ccc1OC (stereo not shown) [CU0248] | 101
CCCCCOc1cc(N2CCCN(Cc3ccnc4c3ccn4CCC3CCOCC3)C2=O)ccc1OC [CU0249] | 386
CCCCCOc1cc(N2CCCN(Cc3ccnc4c3ccn4CCN3CCOC3=O)C2=O)ccc1OC [CU0250] | 217
CCCCCOc1cc(N2CCCN(Cc3ccnc4c3ccn4CC3=NCCN3C)C2=O)ccc1OC [CU0251] | 34
COc1ccc(N2CCCN(Cc3ccnc4c3ccn4CC(=O)N(C)C)C2=O)cc1OCc1ccccc1 [CU0252] | 825
COc1ccc(N2CCCN(Cc3ccnc4c3ccn4CC(=O)N(C)C)C2=O)cc1OCC[C@@H]1C[C@@H]2CC[C@H]1C2 [CU0253] | 41.9
CCCCCOc1cc(N2CCCN(Cc3ccnc4c3ccn4CCN3CCCC3)C2=O)ccc1OC [CU0254] | 18.7
COc1ccc(N2CCCN(Cc3ccnc4c3ccn4CC(=O)N(C)C)C2=O)cc1OCCC1CCCC1 [CU0259] | 75
COc1ccc(N2CCCN(Cc3ccnc4c3ccn4CC(=O)N(C)C)C2=O)cc1OCCCC(C)(F)F [CU0262] | 34.6

tested on: not listed separately; assay: Kinetic solubility in PBS pH 7.4, HPLC-UV (Example 21, Table 27); type: physicochemical; conditions: phosphate buffered saline, aqueous buffer, kinetic from dmso stock, 0.5 M PBS, shaken minimum 24 h at approximately 25° C., HPLC-UV 270 nm
Experimental: Compounds were analyzed for kinetic solubility values using a standard kinetic solubility assay format. First, test compounds were dissolved in DMSO (Aldrich Chemical Co., Milwaukee, Wis., USA) at a concentration of 0.010 mol/L and used to prepare standard calibrators in DMSO solution. 500.0 μM, 250.0 μM, 125.0 μM, 62.5 μM, 31.2 μM, and 15.6 μM standards were prepared in a Greiner UV-Star clear V-bottom 96-well plate (Greiner-Bio One, Germany) for generating a standard curve. Using Alfa Aesar's Sodium phosphate, 0.2 M buffer solution, pH 7.4 (Alfa Aesar, Haverhill, Mass., USA), aqueous phosphate buffered saline (PBS) was prepared by diluting with Milli-Q water for a final concentration of 0.05 M. The pH of the solution was adjusted to 7.4±0.1 using 0.1 M hydrochloric acid (Fisher Scientific Waltham, Mass., USA) or 0.1 M aqueous sodium hydroxide (Fisher Scientific Waltham, Mass., USA).
10 μL of 0.010 mol/L DMSO test compound stock solutions were pipetted to separate 1.5 mL centrifuge tubes in triplicate. To these tubes, 190 μl of 0.05 M PBS was added. Each tube was gently vortexed for 5 sec. The tubes were shaken for a minimum of 24 h at approximately 25° C. After shaking, the solutions were transferred to 0.5 mL centrifuge filter tubes (MilliporeSigma, Burlington, Mass., USA) and centrifuged at 10,000 rpm for 5 min. After centrifugation, supernatants were collected and used for compound concentration analysis.
Compound concentrations in each solution were determined using high pressure liquid chromatography (HPLC) with ultraviolet (UV) detection and comparison with external standards. For HPLC, a Waters Acquity CSH Phenyl-Hexyl column (2.1 mm×50 mm, 1.7 μm) was used together with a generic gradient method on a Waters H-class system equipped with a diode array detector: Solvent A=0.1% formic acid in water, Solvent B=0.1% formic acid in acetonitrile (MilliporeSigma, Burlington, Mass., USA), flow=0.65 mL/min, (t=0 min: 95% A-5% B, t=4.75 min: 0% A-100% B, t=4.85 min: 0% A-100% B, t=4.86 min: 95% A-5% B, t=5 min: 95% A-5% B). UV quantifications were performed at 270 nm. Solution concentrations were calculated using Microsoft Excel.

solubility kinetic [µM] | SMILES
286 (≈ 150 µg/mL) | COc1cc(CC(=O)N(C)C)ccc1CN1CCCN(c2ccc(OC)c(OCCC[C@H]3C[C@H]3C)c2)C1=O (racemic) [CU0226]
75 (≈ 40 µg/mL) | COc1ccc(N2CCCN(Cc3ccnc4c3ccn4CC(=O)N(C)C)C2=O)cc1OCCC[C@H]1C[C@@H]1C (racemic) [CU0752]
348 (≈ 208 µg/mL) | CCCCCOc1cc(N2CCCN(Cc3ccc(CC(=O)N4CCO[C@@H](CN(C)C)C4)cc3OC)C2=O)ccc1OC (stereo in doubt) [CU0186]
417 (≈ 249 µg/mL) | CCCCCOc1cc(N2CCCN(Cc3ccc(CC(=O)N4CCO[C@H](CN(C)C)C4)cc3OC)C2=O)ccc1OC (stereo in doubt) [CU0187]
366 (≈ 231 µg/mL) | COc1cc(CC(=O)NC2CCN(C(C)C)CC2)ccc1CN1CCCN(c2ccc(OC)c(OCCCC(C)(F)F)c2)C1=O [CU0141]
58 (≈ 25.7 µg/mL) | COc1ccc(F)cc1CN1CCCN(c2ccc(OC)c(OCCC3CCC3)c2)C1=O [CU0154]
62 (≈ 34 µg/mL) | CCCCCOc1cc(N2CCCN(Cc3ccc(CNC(=O)c4ccnnc4)cc3OC)C2=O)ccc1OC [CU0503]
60 (≈ 32.9 µg/mL) | CCCCCOc1cc(N2CCCN(Cc3ccc(CNC(=O)c4cccnn4)cc3OC)C2=O)ccc1OC [CU0505]
< 10 | COc1ccc(N2CCCN(Cc3ccnc4c3c(Cl)cn4CC(=O)N3CCNC(=O)C3)C2=O)cc1OCCCC1CC1 [CU0522]
50 (≈ 27.5 µg/mL) | CCCCCOc1cc(N2CCCN(Cc3ccc(CNC(=O)c4cnnn4C)cc3OC)C2=O)ccc1OC [CU0544]
< 10 | COc1cc(CNC(C)=O)ccc1CN1CCCN(c2ccc(OC)c(OCCCC3CCC3)c2)C1=O [CU0546]
12 (≈ 7.42 µg/mL) | CCCCCOc1cc(N2CCCN(Cc3ccnc4c3c(Cl)cn4CCN3CCS(=O)(=O)CC3)C2=O)ccc1OC [CU0551]
12 (≈ 6.67 µg/mL) | CCCCCOc1cc(N2CCCN(Cc3ccnc4c3c(Cl)cn4CC(=O)NC(C)C)C2=O)ccc1OC [CU0553]
< 10 | CCCCCOc1cc(N2CCCN(Cc3ccnc4c3c(Cl)cn4Cc3nnn(C)n3)C2=O)ccc1OC [CU0556]
< 10 | CCCCCOc1cc(N2CCCN(Cc3ccnc4c3c(Cl)cn4CCOCCNC(C)=O)C2=O)ccc1OC [CU0559]
19 (≈ 12.6 µg/mL) | CCCCCOc1cc(N2CCCN(Cc3ccnc4c3c(Cl)cn4CCOC(=O)N3CCS(=O)(=O)CC3)C2=O)ccc1OC [CU0563]
249 (≈ 138 µg/mL) | CCCCCOc1cc(N2CCCN(Cc3ccnc4c3c(Cl)cn4CCN3CCCC3)C2=O)ccc1OC [CU0564]
< 10 | CCCCCOc1cc(N2CCCN(Cc3ccnc4c3c(Cl)cn4Cc3nnnn3C)C2=O)ccc1OC [CU0570]
13 (≈ 7.85 µg/mL) | CCCCCOc1cc(N2CCCN(Cc3ccnc4c3c(Cl)cn4CCN3CCCS3(=O)=O)C2=O)ccc1OC [CU0577]
< 10 | COc1ccc(N2CCCN(Cc3ccnc4c3c(Cl)cn4CC(=O)N(C)C)C2=O)cc1OCCCC(C)(C)C [CU0595]
170 (≈ 84.6 µg/mL) | CCCCCOc1cc(N2CCCN(Cc3ccc(C4CNC(=O)O4)cc3OC)C2=O)ccc1OC (stereo not shown) [CU0611]
101 (≈ 51 µg/mL) | CCCCCOc1cc(N2CCCN(Cc3ccc(Cc4cnccn4)cc3OC)C2=O)ccc1OC [CU0614]
179 (≈ 91.6 µg/mL) | CCCCCOc1cc(N2CCCN(Cc3ccc(C4CN(C)C(=O)O4)cc3OC)C2=O)ccc1OC (stereo not shown) [CU0618]
275 (≈ 168 µg/mL) | CCCCCOc1cc(N2CCCN(Cc3ccnc4c3c(Cl)cn4C(C)C(=O)N3CN(C(C)C)C3)C2=O)ccc1OC (stereo not shown) [CU0620]
364 (≈ 171 µg/mL) | CCCCCOc1cc(N2CC[C@H](C)N(Cc3cccc4[nH]cc(Cl)c34)C2=O)ccc1OC [CU0623]
> 500 | COc1cc(CCNC2CCN(C)C2=O)ccc1CN1CCCN(c2ccc(OC)c(OCCCC3CC3)c2)C1=O (stereo not shown) [CU0643]
139 (≈ 72.2 µg/mL) | CCCCCOc1cc(N2CCCN(Cc3ccnc4c3ccn4[C@@H]3CCN(C)C3=O)C2=O)ccc1OC [CU0667]
440 (≈ 222 µg/mL) | CCCCCOc1cc(N2CCCN(Cc3ccc(Cc4ccccn4)cc3OC)C2=O)ccc1OC [CU0672]
11 (≈ 5.96 µg/mL) | CCCCCOc1cc(N2CCCN(Cc3cncc4c3c(Cl)cn4CC(=O)N(C)C)C2=O)ccc1OC [CU0673]
71 (≈ 38.9 µg/mL) | CCCCCOc1cc(N2CCCN(Cc3ccc(CNC(=O)c4cnccn4)cc3OC)C2=O)ccc1OC [CU0677]
